{
  "source": "patent US12102682B1",
  "about": "“Injectable photothermal hydrogel based on melanin, preparation method, and application thereof” (OCEAN UNIVERSITY OF CHINA, priority 2023, dated 2024)",
  "test": "Body weight, organ index and HE histopathology of treated mice",
  "format": "in vivo",
  "settings": "for Change in body weight: tumor-bearing mice, intratumoral injection, 14 days, DOX 5 mg/kg, ICG 1 mg/kg, LASER groups 808 nm 1 W/cm^2 5 min",
  "procedure": "Thirty female mice were randomly divided into 6 groups with 5 mice per group: (1) a saline group: injection of saline only; (2) a DOX group (5 mg/kg): injection of DOX; (3) a GEL/LASER group: a combined effect of the HPCS/MP hydrogel and NIR light irradiation; (4) a GEL/DOX (5 mg/kg) group: an effect of the HPCS/MP hydrogel encapsulating DOX·HCL; (5) a GEL/DOX (5 mg/kg)/LASER group: a combined effect of HPCS/MP hydrogel encapsulating DOX·HCL and NIR light irradiation, and (6) an indocyanine green (ICG) (1 mg/kg) group: injection of ICG. The different groups of mice were injected with 100 μL of saline, DOX, ICG, an HPCS/MP hydrogel precursor solution, and a GEL/DOX hydrogel precursor solution by intratumoral injection.\nIn the laser irradiation group LASER was irradiated for 5 min using an laser of 808 nm at a power of 1 W/cm^2 on days 2, 4, 6, 8, 10, and 12 after drug administration, and an irradiated site was a tumor site visible to naked eyes, with a light source positioned 5 cm from a body surface. The date of irradiation was designated as day 1, and an observation period extended to 14 days. A tumor volume was measured with a vernier caliper and a weight of the mice was weighed using an electronic balance every two days, and then a curve of the tumor volume, the body weight, and time was plotted. On the 14th day, the mice were euthanized, and axillary tumor bodies and tissues of the heart, liver, spleen, lung, and kidney of the mice were collected. The weights of the tumors and organ tissues of the various groups were accurately measured and recorded to calculate a tumor inhibition rate and an organ index of each group. Then immunohistochemistry and HE staining were performed for pathological analysis.",
  "note": "Counter-ions that a name gives are not always drawn.",
  "data": [
    {"compound": "COc1cccc2c1C(=O)c1c(O)c3c(c(O)c1C2=O)C[C@@](O)(C(=O)CO)C[C@@H]3O[C@H]1C[C@H](N)[C@H](O)[C@H](C)O1", "note": "[DOX, doxorubicin hydrochloride]", "values": [
      {"measurement": "HE staining of liver sections compared with control group", "setting": "mice, 14th day", "result": "very loose"},
      {"measurement": "HE staining of lung tissues", "setting": "mice, 14th day", "result": "some degree of damage"},
      {"measurement": "HE staining of renal tissue sections", "setting": "mice, 14th day", "result": "some slight damage"},
      {"measurement": "HE staining of spleen tissues compared with control group", "setting": "mice, 14th day", "result": "tissues became loose"},
      {"measurement": "Liver index compared to control group", "setting": "mice, 14th day", "result": "significantly reduced"},
      {"measurement": "Change in body weight", "result": "significant downward trend in the body weight"}
    ]},
    {"compound": "CC1(C)C(/C=C/C=C/C=C/C=C2\\N(CCCCS(=O)(=O)O)c3ccc4ccccc4c3C2(C)C)=[N+](CCCCS(=O)(=O)[O-])c2ccc3ccccc3c21", "note": "[ICG, indocyanine green]", "values": [
      {"measurement": "HE staining of liver sections compared with control group", "setting": "mice, 14th day", "result": "slight loosening"},
      {"measurement": "Change in body weight", "result": "decrease trend in the body weight"}
    ]}
  ]
}
